Kd and Ki data for 18 molecules are collected here from US20050250742A1 (Pfizer Inc., priority 2004, published 2005).

Molecules are shown by their SMILES. Where only a bound is given, the exact number is not on record here.

The target in assay [1] is T1, PIN1-CD (catalytic PIN1 domain, devoid of the PIN1 WW domain) (Homo sapiens, UniProt Q13526).
T1 construct: PIN1 peptide containing the catalytic peptidyl-prolyl isomerase domain but devoid of the PIN1 WW domain
Kind of assay: Dissociation constant (Kd) with PIN1 catalytic domain. The settings on record: peptide containing the catalytic PIN1 domain. In kind it is binding. The text has this: (§1) In Table 1, the Ki data reported under the PIN1—CD heading corresponds to testing with PIN1 peptide containing the catalytic peptidyl-prolyl isomerase domain but devoid of the PIN1 WW domain. Similarly, the dissociation constant (Kd) data under PIN1-CD refers to testing with a peptide containing the catalytic PIN1 domain but devoid of the PIN1 WW domain.

Assay [2] concerns the target T2, PIN1-CD (catalytic peptidyl-prolyl isomerase domain, devoid of the PIN1 WW domain) (Homo sapiens, UniProt Q13526).
T2 construct: PIN1 peptide containing the catalytic peptidyl-prolyl isomerase domain but devoid of the PIN1 WW domain
As to the kind of experiment: Pin1 peptidyl-prolyl isomerase assay (protease-coupled, spectrophotometric). Conditions: catalytic PPIase domain without WW domain; 15° C., pH 7.5, 100 μM Suc-AEPF-pNA. In kind it is biochemical.
Text: PIN1 is a phosphorylation dependent peptidyl-prolyl isomerase. The PIN1 assay is a spectrophotometric assay based on the coupled chymotrypsin or subtilisin catalyzed, cis-trans conformation dependent cleavage of a para-nitroanaline containing peptide substrate. […] Cleavage of the isomerized peptide releases para-nitroanaline, which can be monitored by an increase in absorbance at 390 nm. The PIN1 peptide substrate, succinyl-[…]-proline-phenylalanine-paranitroaniline (Suc-AEPF-pNA) (Bachem), is kept in a predominantly cis conformation with an anhydrous TFE/LiCl solvent mixture.
Upon dilution into an aqueous assay mixture containing PIN1, the peptide substrate undergoes PIN1 catalyzed isomerization to the trans conformation. […] To minimize the spontaneous isomerization of the peptide substrate, reactions are performed at 15° C. A typical reaction contains 25 mM MOPS pH 7.5, 0.5 mM TCEP, 2% DMSO, 5 μl of a 25 mg/ml solution of subtilisin Carlsberg, 50 nM PIN1-PPiase, and 100 μM Suc-AEPF-pNA peptide substrate. Reactions are cooled to 15° C. and initiated with the addition of Suc-AEPF-pNA. The absorbance at 390 nm is monitored continuously until all substrate has been converted to the cleaved product. […] The rate constant k is linearly proportional to the concentration of active enzyme present in the assay mixture once the rate constant for the spontaneous isomerization is subtracted. […] Therefore, during inhibition experiments, the IC50, for non-tight binding inhibitors, is essentially the inhibition constant Ki.
as §1

T2 sequence (Q13526 52-163 limits assumed): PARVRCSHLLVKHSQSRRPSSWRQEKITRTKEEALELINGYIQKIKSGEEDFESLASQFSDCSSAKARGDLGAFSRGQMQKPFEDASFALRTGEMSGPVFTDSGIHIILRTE
T1 sequence (Q13526 52-163 limits assumed): as above

On to `O=C(OCCCCc1ccccc1)[C@@H]1CCCCN1S(=O)(=O)N[C@@H](COP(=O)(O)O)Cc1ccccc1` [Example 5b1, 1-(2-Phenyl-1-phosphonooxymethyl-ethylsulfamoyl)-piperidine-2S-carboxylic acid 4-phenyl-butyl ester], for which the Kd (as a rule, the equilibrium constant for the complex coming apart) in assay [1] is less than 10000 nM. Moreover, the Ki (commonly the equilibrium dissociation constant of an inhibitor or competing ligand from its target) in assay [2] was less than 10000 nM.
`O=P(O)(O)OC[C@@H](Cc1ccccc1)NS(=O)(=O)N1CCCC[C@H]1c1nnc(Cc2ccccc2)o1` [Example 5b5, Phosphoric acid mono-{(R)-2-[(S)-2-(5-benzyl-[1,3,4]oxadiazol-2-yl)-piperidine-1-sulfonylamino]-3-phenyl-propyl}ester] had a Kd in assay [1] of less than 10000 nM. The Ki in assay [2] was less than 10000 nM.
For the molecule `O=C(O)[C@@H]1CCCCN1S(=O)(=O)N[C@@H](COP(=O)(O)O)Cc1ccccc1` [Example 5b2, 1-(2-Phenyl-1-phosphonooxymethyl-ethylsulfamoyl)-piperidine-2-carboxylic acid], in assay [1], the equilibrium dissociation constant (Kd) was less than 10000 nM. Besides, in assay [2], the Ki was less than 10000 nM.
For the molecule `Cc1cccc(C[C@H](COP(=O)(O)O)NC(=O)c2ccc3ccccc3c2Br)c1` [Example 25-34, Phosphoric acid mono-((R)-2-{[1-(1-bromo-naphthalen-2-yl)-methanoyl]-amino}-3-m-tolyl-propyl)ester], the Kd in assay [1] is less than 1000 nM. The Ki in assay [2] is less than 1000 nM.
Molecule `O=C(O)[C@@H]1CCCCN1C(=O)N[C@@H](COP(=O)(O)O)Cc1ccccc1` [Example 16d, 1-(2-Phenyl-1-phosphonooxymethyl-ethylcarbamoyl)-piperidine-2-carboxylic acid] had a Kd in assay [1] of less than 10000 nM. Also, the Ki in assay [2] is less than 10000 nM.
In turn, `O=C(O[C@@H](COP(=O)(O)O)Cc1cccc(F)c1)c1ccc2ccccc2c1` [Example 74, Naphthalene-2-carboxylic acid (R)-1-(3-fluoro-benzyl)-2-phosphonooxy-ethyl ester] yielded a Kd in assay [1] of less than 1000 nM. Also, the Ki in assay [2] was less than 1000 nM.
With `O=C(O[C@@H](COP(=O)(O)O)Cc1cccc(F)c1)c1cc2ccccc2s1` [Example 54], the Kd in assay [1] is less than 1000 nM. The Ki in assay [2] was less than 1000 nM.
Turning to `COc1ccc2cc(C(=O)N[C@@H](COP(=O)(O)O)Cc3cccc(F)c3)ccc2c1` [Example 25-32, Phosphoric acid mono-((R)-3-(3-fluoro-phenyl)-2-{[1-(6-methoxy-naphthalen-2-yl)-methanoyl]-amino}-propyl)ester], in assay [1], the Kd was less than 1000 nM. The molecule further had a Ki in assay [2] of less than 1000 nM.
The molecule `O=C(N[C@H](CCc1ccccc1)COP(=O)(O)O)c1ccc2ccccc2c1` [Example 37, Phosphoric acid mono-{2-[(1-naphthalen-2-yl-methanoyl)-amino]-4-phenyl-butyl}ester] came in with a Kd in assay [1] of less than 2000 nM. Further, the inhibition constant Ki in assay [2] was less than 10000 nM.
The matching figures for `CC(C)(C)C(=O)N[C@@H](COP(=O)(O)O)Cc1cccc(F)c1` [Example 25-30, Phosphoric acid mono-[(R)-2-(2,2dimethyl-propanoylamino)-3-(3-fluoro-phenyl)-propyl]ester]: less than 1000 nM and less than 1000 nM.
Turning to `CC(=O)N[C@@H](COP(=O)(O)O)Cc1ccccc1` [Example 25-40, Phosphoric acid mono-(2-acetylamino-3-phenyl-propyl)ester], in assay [2], the inhibitory constant (Ki) is less than 10000 nM.
For `O=C(O[C@@H](COP(=O)(O)O)Cc1ccccc1)c1ccc2ccccc2c1` [Example 49, Naphthalene-2-carboxylic acid (R)-2-phenyl-1-phosphonooxymethyl-ethyl ester], the Kd in assay [1] is less than 1000 nM. Moreover, the Ki in assay [2] is less than 1000 nM.
For `O=C(N[C@@H](COP(=O)(O)O)Cc1ccccc1)c1cccc(Cl)c1` [Example 25-8, Phosphoric acid mono-(2-{[1-(3-chloro-phenyl)-methanoyl]-amino}-3-phenyl-propyl) ester], the inhibition constant Ki in assay [2] was less than 1000 nM.
In assay [1], `O=C(N[C@@H](COP(=O)(O)O)Cc1ccccc1)c1ccc2[nH]cnc2c1` [Example 25-23, Phosphoric acid mono-{(R)-2-[(1H-benzoimidazole-5-carbonyl)-amino]-3-phenyl-propyl}ester] registered a Kd of less than 1000 nM. In assay [2], this molecule gave a Ki of less than 1000 nM.
Molecule `CC(C)(C)OC(=O)N[C@@H](COP(=O)(O)O)Cc1cccnc1` [Example 30, (1-Phosphonooxymethyl-2-pyridin-3-yl-ethyl)-carbamic acid tert-butyl ester] came in with a dissociation constant (Kd) in assay [1] of less than 10000 nM. In assay [2], this molecule yielded a Ki of less than 100000 nM.
In the case of `COc1ccc2cc(C(=O)N[C@@H](COP(=O)(O)O)Cc3cccc(C)c3)ccc2c1` [Example 25-35, Phosphoric acid mono-((R)-2-{[1-(6-methoxy-naphthalen-2-yl)-methanoyl]-amino}-3-m-tolyl-propyl)ester], the Kd in assay [1] is less than 1000 nM. Also, the Ki in assay [2] is less than 1000 nM.
`O=C(N[C@@H](COP(=O)(O)O)CC1CCCCC1)c1ccc2ccccc2c1` [Example 33, Phosphoric acid mono-{(R)-3-cyclohexyl-2-[(1-naphthalen-2-yl-methanoyl)-amino]-propyl}ester] had a Ki in assay [2] of less than 10000 nM.
Turning to `O=C(N[C@@H](COP(=O)(O)O)Cc1cccc(F)c1)c1ccc2ccccc2c1Br` [Example 25-31, Phosphoric acid mono-[(R)-2-{[1-(1-bromo-naphthalen-2-yl)-methanoyl]-amino}-3-(3-fluoro-phenyl)-propyl]ester], the Kd in assay [1] is less than 1000 nM. The same molecule showed a Ki in assay [2] of less than 1000 nM.
